Three compounds from US6407098B1, “Fungicidal aza-heterocycloalkenes” (Bayer Aktiengesellschaft, priority 1995, dated 2002) can be followed below.

The nature of series [1]: logP. Type of series: physicochemical.
The subject of series [2] is Venturia inaequalis. Put plainly: Venturia test (apple)/protective. It is filed as in vivo. The following applies: protective, active compound concentration 500 ppm, evaluation 12 days after inoculation. On the procedure: Venturia test (apple)/protective Solvent: 12.5 parts by weight of acetone Emulsifier: 0.3 parts by weight of alkylaryl polyglycol ether To produce a suitable preparation of active compound, 1 part by weight of active compound is mixed with the stated amounts of solvent and emulsifier, and the concentrate is diluted with water to the desired concentration. To test for protective activity, young plants are sprayed with the preparation of active compound until dripping wet. After the spray coating has dried on, the plants are inoculated with an aqueous conidia suspension of the apple scab causative organism Venturia inaequalis and then remain in an incubation cabin at 20° C. and 100% relative atmospheric humidity for 1 day. The plants are then placed in a greenhouse at 20° C. and a relative atmospheric humidity of about 70%. Evaluation is carried out 12 days after the inoculation.

The subject of series [3] is Erysiphe graminis f.sp. hordei. Put plainly: Erysiphe test (barley)/protective. Particulars: protective, active compound concentration 500 ppm, evaluation 7 days after inoculation. It is filed as in vivo. On the procedure:
Erysiphe test (barley)/protective Solvent: 12.5 parts by weight of N-methyl-pyrrolidone Emulsifier: 0.3 parts by weight of alkylaryl polyglycol ether To produce a suitable preparation of active compound, 1 part by weight of active compound is mixed with the stated amounts of solvent and emulsifier, and the concentrate is diluted with water to the desired concentration. To test for protective activity, young plants are sprayed with the preparation of active compound at the stated application rate. After the spray coating has dried on, the plants are dusted with spores of Erysiphe graminis f.sp. hordei. The plants are placed in a greenhouse at a temperature of about 20° C. and a relative atmospheric humidity of about 80%, in order to promote the development of powdery mildew pustules. Evaluation is carried out 7 days after the inoculation.

Series [4] concerns Podosphaera leucotricha. Put plainly: Podosphaera test (apple)/protective. Type of series: in vivo. The following applies: protective, active compound concentration 100 ppm, evaluation 10 days after inoculation. Here is the method: Podosphaera test (apple)/protective Solvent: 4.7 parts by weight of acetone Emulsifier: 0.3 parts by weight of alkylaryl polyglycol ether To produce a suitable preparation of active compound, 1 part by weight of active compound is mixed with the stated amounts of solvent and emulsifier, and the concentrate is diluted with water to the desired concentration. To test for protective activity, young plants are sprayed with the preparation of active compound. After the spray coating has dried on, the plants are inoculated by dusting with conidia of the causative organism of apple mildew (Podosphaera leucotricha). The plants are then placed in a greenhouse at 23° C. and a relative atmospheric humidity of about 70%. Evaluation is carried out 10 days after the inoculation.

Series [5] has as its system Sphaerotheca fuliginea. Put plainly: Sphaerotheca test (cucumber)/protective. Type of series: in vivo. Particulars: protective, active compound concentration 100 ppm, evaluation 10 days after inoculation. On the procedure: Sphaerotheca test (cucumber)/protective Solvent: 4.7 parts by weight of acetone Emulsifier: 0.3 parts by weight of alkylaryl polyglycol ether To produce a suitable preparation of active compound, 1 part by weight of active compound is mixed with the stated amounts of solvent and emulsifier, and the concentrate is diluted with water to the desired concentration. To test for protective activity, young plants are sprayed with the preparation of active compound. After the spray coating has dried on, the plants are dusted with conidia of the fungus Sphaerotheca fuliginea. The plants are then placed in a greenhouse at 23 to 24° C. and at a relative atmospheric humidity of about 75%. Evaluation is carried out 10 days after the inoculation.

As to `CON=C(C1=NN(C)CCO1)c1ccccc1COc1ccccc1C` [Example I-3, 2-{1-methoximino-1-[2-(2-methylphenoxymethyl)-phenyl]-methyl}-4-methyl-5,6-dihydro4H-1,3,4oxadiazine], the logP (in general, the decadic logarithm of the partition coefficient of the neutral form, usually between octanol and water) in series [1] was determined as 3.54.
For the compound `CO/N=C(/C1=NOCCN1)c1ccccc1COc1ccccc1C` [Example I-1, 3-{1-[2-(2-methylphenoxymethyl)-phenyl]-1-(methoximino)-methyl}-5,6-dihydro-4H-1,2,4-oxadiazine], the degree of action in series [2] was found to be 100%; in series [3], 90%.
On to `CO/N=C(/C1=NOCCS1)c1ccccc1COc1ccccc1C` [Example I-2, 3-{1-[2-(2-methylphenoxymethyl)phenyl]-1-(methoximino)methyl}-5,6dihydro4H-1,4,2-oxathiazine], for which the degree of action was determined as 100% in series [2], 90% in series [4], 96% in series [5] and 90% in series [3].
